Measured values from the supplement of paper PMC10331698.
± gives the standard deviation of the averaged measurements.

Assays:
Assay in all cases: level (log10 ratio to DMSO vehicle control); higher = higher biomarker level / cell amount than vehicle control
Details in all cases: in DMSO
[1] = compound: C=CC(=O)OCC(F)(F)C(F)(F)C(F)(F)C(F)(F)C(F)(F)C(F)(F)C(F)(F)F [1H,1H-Perfluorooctyl acrylate]
Procedure: (§1)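 BioMAP Diversity Plus panel of 12 human primary cell co-culture systems (3C, 4H, LPS, SAg, BT, BF4T, BE3C, CASM3C, HDF3CGF, KF3CT, MyoF, Mphg). Compounds were added 1 h before stimulation and left for 24 h (MyoF 48 h; BT 72 h for soluble read-outs or 6 d for IgG). Biomarkers were read by ELISA, cytotoxicity by SRB, PBMC viability and proliferation by Alamar Blue. Each well value was divided by the mean of 8 DMSO control wells on the same plate and log10 transformed; duplicate blinded samples were tested at 4 concentrations.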

[2] = compound: C=CC(F)(F)C(F)(F)C(F)(F)C(F)(F)C(F)(F)C(F)(F)C(F)(F)C(F)(F)C=C [1,8-Divinylperfluorooctane]
Procedure: as §1

[3] = compound: COC(=O)CCC(F)(F)C(F)(F)C(F)(F)C(F)(F)F [Methyl 2H,2H,3H,3H-perfluoroheptanoate]
Procedure: as §1

[4] = compound: FC(F)(F)C(F)(F)C(F)(F)C(F)(F)C(F)(F)C(F)(F)C(F)(F)C(F)(F)CCS [2-(Perfluorooctyl)ethanthiol]
Procedure: as §1

[5] = compound: O=C(O)C(F)(F)C(F)(F)OC(F)(F)F [Perfluoro-3-methoxypropanoic acid]
Procedure: as §1

[6] = compound: O=S(=O)(O)C(F)(F)C(F)(F)C(F)(F)C(F)(F)C(F)(F)C(F)(F)F [Perfluorohexanesulfonic acid]
Procedure: as §1

[7] = compound: OCC(F)(F)OC(F)(F)C(F)(F)OC(F)(F)CO [1H,1H,8H,8H-Perfluoro-3,6-dioxaoctane-1,8-diol]
Procedure: as §1

LPS:CD106/VCAM-1
level (log10) ([1]; 6700 nM): -0.0045 ± 0.011
level (log10) ([1]; 20000 nM): -0.0165 ± 0.0021
level (log10) ([1]; 60000 nM): -0.0145 ± 0.0078
level (log10) ([2]; 6700 nM): -0.0145 ± 0.0092
level (log10) ([2]; 20000 nM): -0.033 ± 0.0014
level (log10) ([3]; 6700 nM): -0.0265 ± 0.011
level (log10) ([3]; 20000 nM): -0.0265 ± 0.00071
level (log10) ([3]; 60000 nM): -0.0085 ± 0.021
level (log10) ([4]; 6700 nM): -0.007 ± 0.04
level (log10) ([4]; 20000 nM): -0.0225 ± 0.005
level (log10) ([5]; 6700 nM): 0.0065 ± 0.013
level (log10) ([5]; 20000 nM): -0.0065 ± 0.00071
level (log10) ([5]; 60000 nM): -0.01 ± 0.0028
level (log10) ([6]; 6700 nM): -0.016 ± 0.017
level (log10) ([6]; 20000 nM): -0.0155 ± 0.015
level (log10) ([6]; 60000 nM): 0.005 ± 0.016
level (log10) ([7]; 6700 nM): 0.0185 ± 0.033
level (log10) ([7]; 20000 nM): -0.02 ± 0.0042
level (log10) ([7]; 60000 nM): -0.013 ± 0.033

SAg:PBMC Cytotoxicity
level (log10) ([1]; 6700 nM): -0.004 ± 0.017
level (log10) ([1]; 20000 nM): 0.0125 ± 0.053
level (log10) ([1]; 60000 nM): -0.0535 ± 0.071
level (log10) ([2]; 6700 nM): 0.017 ± 0.025
level (log10) ([2]; 20000 nM): 0.0425 ± 0.00071
level (log10) ([3]; 6700 nM): 0.033 ± 0.021
level (log10) ([3]; 20000 nM): 0.029 ± 0.058
level (log10) ([3]; 60000 nM): 0.029 ± 0.057
level (log10) ([4]; 6700 nM): -0.025 ± 0.023
level (log10) ([4]; 20000 nM): -0.0015 ± 0.0035
level (log10) ([5]; 6700 nM): 0.034 ± 0.014
level (log10) ([5]; 20000 nM): 0.016 ± 0.013
level (log10) ([5]; 60000 nM): -0.0115 ± 0.011
level (log10) ([6]; 6700 nM): -0.025 ± 0.0042
level (log10) ([6]; 20000 nM): -0.0175 ± 0.026
level (log10) ([6]; 60000 nM): 0.0085 ± 0.012
level (log10) ([7]; 6700 nM): 0.0055 ± 0.005
level (log10) ([7]; 20000 nM): 0.028 ± 0.089
level (log10) ([7]; 60000 nM): -0.033 ± 0.0042

LPS:CD40
level (log10) ([1]; 6700 nM): 0.0745 ± 0.063
level (log10) ([1]; 20000 nM): 0.039 ± 0.071
level (log10) ([1]; 60000 nM): -0.0125 ± 0.097
level (log10) ([2]; 6700 nM): 0.0305 ± 0.018
level (log10) ([2]; 20000 nM): 0.0225 ± 0.0064
level (log10) ([3]; 6700 nM): -0.017 ± 0.041
level (log10) ([3]; 20000 nM): 0.003 ± 0.051
level (log10) ([3]; 60000 nM): -0.015 ± 0.078
level (log10) ([4]; 6700 nM): -0.034 ± 0.055
level (log10) ([4]; 20000 nM): -0.0305 ± 0.11
level (log10) ([5]; 6700 nM): 0.0045 ± 0.013
level (log10) ([5]; 20000 nM): 0.0095 ± 0.015
level (log10) ([5]; 60000 nM): 0.0135 ± 0.039
level (log10) ([6]; 6700 nM): 0.004 ± 0.018
level (log10) ([6]; 20000 nM): 0.011 ± 0.023
level (log10) ([6]; 60000 nM): -0.0045 ± 0.054
level (log10) ([7]; 6700 nM): 0.006 ± 0.027
level (log10) ([7]; 20000 nM): 0.017 ± 0.0028
level (log10) ([7]; 60000 nM): 0.0005 ± 0.03

BE3C:CD54/ICAM-1
level (log10) ([1]; 6700 nM): 0.0055 ± 0.042
level (log10) ([1]; 20000 nM): -0.011 ± 0.014
level (log10) ([1]; 60000 nM): 0.003 ± 0.014
level (log10) ([2]; 6700 nM): 0.0085 ± 0.015
level (log10) ([2]; 20000 nM): 0.0055 ± 0.013
level (log10) ([3]; 6700 nM): -0.0075 ± 0.0092
level (log10) ([3]; 20000 nM): 0.0105 ± 0.018
level (log10) ([3]; 60000 nM): 0.002 ± 0.011
level (log10) ([4]; 6700 nM): -0.0055 ± 0.028
level (log10) ([4]; 20000 nM): -0.0055 ± 0.015
level (log10) ([5]; 6700 nM): 0.003 ± 0.013
level (log10) ([5]; 20000 nM): -0.0035 ± 0.0021
level (log10) ([5]; 60000 nM): 0.0065 ± 0.011
level (log10) ([6]; 6700 nM): 0 ± 0.027
level (log10) ([6]; 20000 nM): 0.0025 ± 0.016
level (log10) ([6]; 60000 nM): 0.008 ± 0.013
level (log10) ([7]; 6700 nM): 0.0195 ± 0.013
level (log10) ([7]; 20000 nM): 0.0045 ± 0.015
level (log10) ([7]; 60000 nM): 0.0055 ± 0.022

SAg:CD69
level (log10) ([1]; 6700 nM): -0.0205 ± 0.021
level (log10) ([1]; 20000 nM): -0.024 ± 0.011
level (log10) ([1]; 60000 nM): -0.035 ± 0.018
level (log10) ([2]; 6700 nM): -0.042 ± 0.021
level (log10) ([2]; 20000 nM): -0.012 ± 0.035
level (log10) ([3]; 6700 nM): -0.0375 ± 0.035
level (log10) ([3]; 20000 nM): -0.0225 ± 0.019
level (log10) ([3]; 60000 nM): -0.0085 ± 0.05
level (log10) ([4]; 6700 nM): -0.0165 ± 0.0092
level (log10) ([4]; 20000 nM): -0.035 ± 0.0014
level (log10) ([5]; 6700 nM): 0.0005 ± 0.00071
level (log10) ([5]; 20000 nM): 0.0225 ± 0.011
level (log10) ([5]; 60000 nM): -0.0005 ± 0.018
level (log10) ([6]; 6700 nM): -0.0235 ± 0.00071
level (log10) ([6]; 20000 nM): -0.0175 ± 0.012
level (log10) ([6]; 60000 nM): -0.06 ± 0.0014
level (log10) ([7]; 6700 nM): 0.0065 ± 0.0064
level (log10) ([7]; 20000 nM): 0.015 ± 0.016
level (log10) ([7]; 60000 nM): -0.0145 ± 0.013
